What was measured:
[1] = biological target: T1, G protein-coupled receptor kinase 5 (Bos taurus, UniProt P43249); experiment: ChEBML_1612831
Experimental: (§1) Inhibition of bovine GRK5 assessed as decrease in phosphorylation of tubulin after 5 mins by SDS-PAGE analysis

[2] = biological target: T1, G protein-coupled receptor kinase 5; experiment: as §1
Rhodopsin kinase GRK1 [3] = biological target: T2, Rhodopsin kinase GRK1 (Bos taurus, UniProt P28327); experiment: (§2) Inhibition of bovine GRK1 (1 to 535 residues) assessed as decrease in phosphorylation of tubulin after 5 mins by SDS-PAGE analysis
T2 sequence (P28327 whole entry): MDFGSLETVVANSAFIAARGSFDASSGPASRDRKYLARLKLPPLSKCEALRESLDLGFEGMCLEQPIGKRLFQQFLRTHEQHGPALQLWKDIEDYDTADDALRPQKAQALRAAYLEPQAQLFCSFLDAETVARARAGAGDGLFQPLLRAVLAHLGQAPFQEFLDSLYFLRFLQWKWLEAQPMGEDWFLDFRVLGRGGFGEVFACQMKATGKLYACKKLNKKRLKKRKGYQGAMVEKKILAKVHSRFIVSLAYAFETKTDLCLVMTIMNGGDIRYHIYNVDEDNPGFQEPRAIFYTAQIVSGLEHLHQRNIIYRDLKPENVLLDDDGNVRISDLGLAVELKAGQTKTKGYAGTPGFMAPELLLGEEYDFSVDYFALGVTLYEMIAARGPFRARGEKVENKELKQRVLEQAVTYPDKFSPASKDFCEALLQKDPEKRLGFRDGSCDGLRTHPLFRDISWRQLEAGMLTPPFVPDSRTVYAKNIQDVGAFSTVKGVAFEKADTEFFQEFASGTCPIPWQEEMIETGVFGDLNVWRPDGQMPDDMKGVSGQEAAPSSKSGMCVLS

Rhodopsin kinase GRK1 [4] = biological target: T2, Rhodopsin kinase GRK1; experiment: Inhibition of C-terminal hexahistidine tagged bovine GRK1 (535 residues) assessed as decrease in phosphorylation of tubulin preincubated for 30 mins followed by ATP addition
Rhodopsin kinase GRK1 [5] = biological target: T2, Rhodopsin kinase GRK1; experiment: Inhibition of C-terminal hexahistidine tagged bovine GRK1 (535 residues) assessed as decrease in phosphorylation of light-activated bovine rod outer segments preincubated for 30 mins followed by ATP addition
[6] = biological target: T1, G protein-coupled receptor kinase 5; experiment: Inhibition of C-terminal hexahistidine tagged bovine GRK5 (561 residues) assessed as decrease in phosphorylation of light-activated bovine rod outer segments preincubated for 30 mins followed by ATP addition
Rhodopsin kinase GRK1 [7] = biological target: T2, Rhodopsin kinase GRK1; experiment: ChEBML_1612830
Experimental: as §2

[8] = biological target: T1, G protein-coupled receptor kinase 5; experiment: Inhibition of C-terminal hexahistidine tagged bovine GRK5 (561 residues) assessed as decrease in phosphorylation of tubulin preincubated for 30 mins followed by ATP addition

T1 sequence (P43249 whole entry): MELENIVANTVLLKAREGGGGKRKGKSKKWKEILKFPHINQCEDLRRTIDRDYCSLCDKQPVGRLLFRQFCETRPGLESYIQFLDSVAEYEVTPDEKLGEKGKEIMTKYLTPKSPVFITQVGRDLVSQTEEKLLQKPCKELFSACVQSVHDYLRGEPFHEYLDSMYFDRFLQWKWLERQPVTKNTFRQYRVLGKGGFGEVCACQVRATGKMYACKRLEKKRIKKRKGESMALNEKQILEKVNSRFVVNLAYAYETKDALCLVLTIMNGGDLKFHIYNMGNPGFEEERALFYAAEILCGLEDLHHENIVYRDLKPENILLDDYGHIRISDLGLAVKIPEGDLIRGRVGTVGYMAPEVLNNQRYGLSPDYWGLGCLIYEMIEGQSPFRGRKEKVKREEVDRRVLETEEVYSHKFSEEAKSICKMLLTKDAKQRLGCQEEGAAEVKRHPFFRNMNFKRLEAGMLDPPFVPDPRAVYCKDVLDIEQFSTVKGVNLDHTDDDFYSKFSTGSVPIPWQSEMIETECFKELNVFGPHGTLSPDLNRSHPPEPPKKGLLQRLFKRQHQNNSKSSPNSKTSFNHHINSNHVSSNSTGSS

CC1=C(C(=O)Nc2ccc3[nH]ncc3c2)C(c2ccc(Cl)c(Cl)c2)CC(=O)N1 (centres undefined) [4-(3,4-Dichlorophenyl)-N-1H-indazol-5-yl-2-methyl-6-oxo-1,4,5,6-tetrahydropyridine-3-carboxamide] gave an IC50 [1] of 79.4 µM.

For CC1=C(C(=O)Nc2ccc3[nH]ncc3c2)C(c2ccc3ccccc3c2)CC(=O)N1 (centres undefined) [N-(1H-indazol-5-yl)-2-methyl-4-(naphthalen-2-yl)-6-oxo-1,4,5,6-tetrahydropyridine-3-carboxamide], the IC50 [2] was 63.1 µM and the IC50 (Rhodopsin kinase GRK1 [3]) was 794 µM.

CC1=C(C(=O)Nc2cc(Cl)c3[nH]ncc3c2)C(c2ccc(C(F)(F)F)cc2)CC(=O)N1 (centres undefined) [N-(7-chloro-1H-indazol-5-yl)-2-methyl-6-oxo-4-[4-(trifluoromethyl)phenyl]-1,4,5,6-tetrahydropyridine-3-carboxamide] showed an IC50 [2] of 39.8 µM.

For Fc1ccc([C@@H]2CCNC[C@H]2COc2ccc3c(c2)OCO3)cc1 [PAROXETINE], the IC50 (Rhodopsin kinase GRK1 [4]) was 158 µM, the IC50 (Rhodopsin kinase GRK1 [5]) was 316 µM and the IC50 [6] was 251 µM. For the same molecule, the IC50 (Rhodopsin kinase GRK1 [7]) was 398 µM and the IC50 [8] was 126 µM.

From BindingDB's records for doi:10.1021/acs.jmedchem.5b01939 (University of Messina, 2016)
